# Reference: US20160168540A1, “COMPOSITION FOR MAINTAINING PLATELET FUNCTION” (KYOTO UNIVERSITY, priority 2013, published 2016)
# pIC50: −log10 of the molar value. “Also recorded” adds a separate entry of the source. Read-outs that look alike come from different tables or passages of the source.
# How the values were obtained:
# TACE (ADAM17) = biological target: T1, TACE (ADAM17) (Homo sapiens, UniProt P78536); assay: TACE (ADAM17) inhibition test; assay type: biochemical; conditions: fluorescent synthetic substrate, 37° C. for 1.5 hours
# T1 construct: made in house; host or cells: mammalian cells or insect cells
# How it was run: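 Recombinant human TACE (mammalian or insect cell expressed) cleaves Nma-LAQAVRSSK(Dnp)-D-Arg-NH2 quenched substrate, 1.5 h at 37 °C. Fluorescence read at Ex 355/Em 460 nm; IC50 from inhibition vs no-compound control, binned A (<100 nM) or B (≥100 nM).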
# [1] = test system: human peripheral blood-derived platelets; assay: Function-maintaining effect on human peripheral blood-derived platelets (CCCP-enhanced GPIbα shedding); assay type: cell-based; conditions: 0.1 to 100 μM, with 100 μM of CCCP, 37° C. for 24 hours; listed as S-108470
# Procedure: First, ACD was added in a ratio of 1/10 to human peripheral blood obtained by collecting blood, and centrifuged at 900 rpm for 10 minutes without a break. The supernatant obtained by the centrifugation was further centrifuged at 1,500 rpm for 10 minutes without a break, and then the supernatant was removed. The obtained precipitate was suspended in a Tyrode-HEPES buffer (not containing calcium). The number of platelets in the suspension was counted, and the platelet-containing suspension (Washed Platelet) was adjusted to have a fixed number (about 5×10^7) of platelets in 200 μL of the Tyrode-HEPES buffer (not containing calcium). Next, as described in Protocol 2 shown in FIG. 1, one of either S-108470 (0.1 to 100 μM), TACE inhibitor S (50 μM), or DMSO was added together with 100 μM of CCCP (carbonyl cyanide m-chlorophenyl hydrazone) to the washed platelets. After incubation at 37° C. for 24 hours, the number of CD42b (GPIbα) (+) cells in the CD41a (+) platelets was measured by flow cytometry. Note that, it is known that addition of CCCP enhances GPIbα shedding on the surface of platelets (see Bergmeier et al., Blood, 2003, vol. 102, pp. 4229-4235).
# [2] = test system: iPS cell-derived platelets; assay: Function-maintaining effect on iPS cell-derived platelets (flow cytometry of CD41a/CD42a/CD42b); assay type: cell-based, human
# Procedure: Human iPS cells (hiPS cells), an iPS cell line (TkDA3-4) established at the University of Tokyo by introducing Oct4, Klf4, Sox2, and c-Myc into human-derived skin cells were cultured on inactivated mouse fibroblasts by treating with 10 μg/mL MitomycinC (manufactured by Wako Pure Chemical Industries Ltd.) in a medium mixture of Dulbecco's modified Eagle's medium and Ham's F-12 medium (manufactured by Sigma-Aldrich Co.) (mixing ratio 1:1) supplemented with 0.1 mM non-essential amino acid (manufactured by Invitrogen Corp.), PSG (100 U/mL penicillin, 100 U/mL streptomycin, and 2 mM L-glutamine) (manufactured by Invitrogen Corp.), 20% knockout serum replacement additive (KSR, manufactured by Invitrogen Corp.), 0.1 mM 2-mercaptoethanol (manufactured by Invitrogen Corp.), and 5 ng/ml basic fibroblast growth factor (bFGF, manufactured by Wako Pure Chemical Industries Ltd.). The cells were subcultured every 3 days, and those cells maintaining an undifferentiated state were used.
# In addition, mouse embryo-derived fibroblasts, a C3H10T½ cell line (hereinafter also referred to as “10T½ cells”), purchased from RIKEN BioResource Center were cultured in basal medium Eagle (BME, manufactured by Invitrogen Corp.) supplemented with 10% fetal bovine serum (FBS) and PSG (100 U/mL penicillin, 100 U/mL streptomycin, and 2 mM L-glutamine) (manufactured by Invitrogen Corp.). Then, the 10T½ cells, which had been deactivated in advance by treating with MitomycinC, were seeded so as to give a cell count of 8×10^6/10-cm dish for use as feeder cells. […]
# Next, the sac structures were detached from the dish, split open, passed through a 40-μm cell strainer (manufactured by BD), and then centrifuged at 1,500 rpm for 8 minutes to collect hematopoietic progenitor cells. […] Then, the number of cells was counted. […]
# T1 sequence (P78536 215-824): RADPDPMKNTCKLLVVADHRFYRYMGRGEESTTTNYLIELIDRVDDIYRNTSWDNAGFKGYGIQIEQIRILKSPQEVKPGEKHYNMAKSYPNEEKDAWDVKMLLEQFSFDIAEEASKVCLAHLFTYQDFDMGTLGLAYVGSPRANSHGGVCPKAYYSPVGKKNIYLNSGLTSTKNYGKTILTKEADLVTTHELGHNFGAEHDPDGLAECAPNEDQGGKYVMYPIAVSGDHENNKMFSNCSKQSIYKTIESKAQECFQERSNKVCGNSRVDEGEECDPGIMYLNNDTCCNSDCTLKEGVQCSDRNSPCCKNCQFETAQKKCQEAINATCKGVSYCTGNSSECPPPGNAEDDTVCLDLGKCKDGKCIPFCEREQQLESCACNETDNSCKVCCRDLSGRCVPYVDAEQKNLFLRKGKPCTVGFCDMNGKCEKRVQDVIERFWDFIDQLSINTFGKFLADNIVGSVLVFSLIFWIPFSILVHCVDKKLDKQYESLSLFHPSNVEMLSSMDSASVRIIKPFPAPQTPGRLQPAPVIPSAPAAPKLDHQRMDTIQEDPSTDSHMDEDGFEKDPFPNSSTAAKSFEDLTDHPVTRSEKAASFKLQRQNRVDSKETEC
Compound,pIC50 (TACE (ADAM17); read-out: TACE IC50),other results
N#Cc1ccc(C2(Cn3cccc(Cl)c3=O)NC(=O)NC2=O)cc1 (racemic) [Compound I-138],> 7.00,
O=C1NC(=O)C(Cn2cccc(Br)c2=O)(c2ccccc2)N1 (racemic) [Compound I-139],> 7.00,
O=C1NC(=O)C(Cn2cccc(C(F)(F)F)c2=O)(c2ccccc2)N1 (racemic) [Compound I-140],> 7.00,
COc1ccc(C2(Cn3cccc(C(F)(F)F)c3=O)NC(=O)NC2=O)cc1 (racemic) [Compound I-141],> 7.00,
N#Cc1ccc(C2(Cn3cccc(C(F)(F)F)c3=O)NC(=O)NC2=O)cc1 (racemic) [Compound I-142],> 7.00,
COc1cccn(CC2(c3ccccc3)NC(=O)NC2=O)c1=O (racemic) [Compound I-143],≤ 7.00,
C=C(C)c1cccn(CC2(c3ccc(OC)cc3)NC(=O)NC2=O)c1=O (racemic) [Compound I-144],≤ 7.00,
O=C1NC(=O)C(Cn2cccc(F)c2=O)(c2ccc(F)c(F)c2)N1 (racemic) [Compound I-145],> 7.00,
O=C1NC(=O)C(Cn2cccc(Cl)c2=O)(c2ccc(F)c(F)c2)N1 (racemic) [Compound I-146],> 7.00,
O=C1NC(=O)C(Cn2cccc(Br)c2=O)(c2ccc(F)c(F)c2)N1 (racemic) [Compound I-147],> 7.00,
O=C1NC(=O)C(Cn2cccc(CO)c2=O)(c2ccc(F)c(F)c2)N1 (racemic) [Compound I-148],≤ 7.00,
O=C1NC(=O)C(Cn2cccc(Br)c2=O)(c2ccc(Cc3ccccc3)cc2)N1 (racemic) [Compound I-149],> 7.00,
O=C1NC(=O)C(Cn2cccc(Cl)c2=O)(c2ccc(Cc3ccccc3)cc2)N1 (racemic) [Compound I-150],> 7.00,
O=C1NC(=O)C(Cn2cccc(CO)c2=O)(c2ccc(Cc3ccccc3)cc2)N1 (racemic) [Compound I-151],≤ 7.00,
O=C1NC(=O)C(Cn2cccc(F)c2=O)(c2ccc(Cc3ccccc3)cc2)N1 (racemic) [Compound I-152],≤ 7.00,
Cc1cccn(CC2(c3cccc(F)c3F)NC(=O)NC2=O)c1=O (racemic) [Compound I-153],> 7.00,
Cc1cccn(CC2(c3cc(F)ccc3F)NC(=O)NC2=O)c1=O (racemic) [Compound I-154],> 7.00,
O=C1NC(=O)C(Cn2ccccc2=O)(c2ccc(F)c(F)c2)N1 (racemic) [Compound I-155],> 7.00,
O=C1NC(=O)C(Cn2ccccc2=O)(c2ccc(Cc3ccccc3)cc2)N1 (racemic) [Compound I-156],≤ 7.00,
O=C1NC(=O)C(Cn2ccccc2=O)(c2cc(F)c(F)c(F)c2)N1 (racemic) [Compound I-157],> 7.00,
"Cc1cccn(CC2(c3ccc(F)c(F)c3)NC(=O)NC2=O)c1=O (single isomer, unassigned; (+)) [(+)-I-10, (+)-5-(3,4-difluorophenyl)-5-[(3-methyl-2-oxopyridin-1(2H)-yl)methyl]imidazolidine-2,4-dione]",> 7.00,"pIC50 (TACE (ADAM17); read-out: TACE inhibitory action, IC50 value): > 7.00; inhibition of GPIbα shedding (CD42b (GPIbα) (+) cells in the CD41a (+) platelets) [1]: inhibits GPIbα shedding in a concentration-dependent manner; also recorded: suppressed in a concentration-dependent manner; number of obtained CD41a (+) CD42a (+) platelets compared with the medium control group ([2]; 10 and 30 μM, treated for 9 to 10 days): slightly larger; percentage of CD41a (+) CD42a (+) CD42b (+) platelets compared with the medium control group ([2]; 10 and 30 μM, treated for 9 to 10 days, listed as S-108470): significant increase; also recorded: increased the percentage of CD42b (+) cells; cytotoxicity / impact on platelet differentiation ([2]; culture system using iPS cells): without exhibiting cytotoxicity or having any impact on platelet differentiation"
Cc1cc(C2(Cn3cccc(C)c3=O)NC(=O)NC2=O)ccc1OC1C=CCCC1 (stereo not drawn) [Compound I-38],> 7.00,
